From patent publication US10112941B2, “Tricyclic compounds as anticancer agents” (BRISTOL-MYERS SQUIBB COMPANY, priority 2013, dated 2018)

How the values were obtained:
[1] = test system: JJN3R multiple myeloma cell line; test: Human tumor xenograft model in mice, JJN3R; assay type: in vivo; conditions: QD × 7
Excerpt: All rodents were obtained from Jackson Laboratory. (Bar Harbor, Me.), and maintained in an ammonia-free environment in a defined and pathogen-free colony. All mice were quarantined approximately 1 week prior to their use for tumor propagation and drug efficacy testing. Mice were fed food and water ad libitum. The animal care program of Bristol-Myers Squibb Pharmaceutical Research Institute is fully accredited by the American Association for Accreditation of Laboratory Animal Care (AAALAC). All experiments were performed in accordance with Bristol-Myers Squibb (BMS) animal test methods and guidelines.
Tumor xenografts were grown and maintained subcutaneously (SC) in NSG (NOD scid IL2 receptor gamma chain knockout) mice (Jackson Lab). Tumors were propagated as subcutaneous transplants using tumor fragments obtained from donor mice.
The required numbers of animals needed to detect a meaningful response were pooled at the start of the experiment and each was given bilateral subcutaneous implants of two tumor fragments (˜20 mg) with a 13-gauge trocar. Tumors were allowed to grow to the pre-determined size window (tumors outside the range were excluded) and animals were evenly distributed to various treatment and control groups. There were typically 6-8 mice per treatment and control groups, consisting of 10-12 tumors. Treatment of each animal was based on individual body weight. Treated animals were checked daily for treatment related toxicity/mortality. Each group of animals was weighed before the initiation of treatment (Wt1) and then again following the last treatment dose (Wt2). The difference in body weight (Wt2−Wt1) provides a measure of treatment-related toxicity.
Tumor response was determined by measurement of tumors with a caliper twice a week, until the tumors reached a predetermined “target” size of 0.5 gm or 1 gm depending on the tumor type. Tumor weights (mg) were estimated from the formula: Tumor weight=(length×width^2)÷2
Tumor response criteria are expressed in terms of tumor growth inhibition (% TGI). Tumor growth delay is defined as the difference in time (days) required for the treated tumors (T) to reach a predetermined target size compared to those of the control group (C). For this purpose, the tumor weight of a group is expressed as medium tumor weight (MTW).
[formula] where, • Ct=Median control tumor size at end of treatment • C0=Median control tumor size at treatment initiation • Tt=Median tumor size of treated group at end of treatment • T0=Median tumor size of treated group at treatment initiation
Tumor response was also expressed in terms of tumor growth delay and expressed as log cell kill (LCK value), defined as the difference in time (days) required for the treated tumors (T) to reach a predetermined target size compared to those of the control group (C).
Whenever possible, antitumor activity was determined at a range of dose levels up to the maximum tolerated dose (MTD) which is defined as the dose level immediately […] which excessive toxicity (i.e. more than one death) occurred. When death occurred, the day of death was recorded. Treated mice dying prior to having their tumors reach target size were considered to have died from drug toxicity. No control mice died bearing tumors less than target size. Treatment groups with more than one death caused by drug toxicity were considered to have had excessively toxic treatments and their data were not included in the evaluation of a compound's antitumor efficacy.
For administration of BET inhibitors to rodents, compounds were dissolved in […]/10% TPGS/10% Ethanol. BET inhibitors were typically administered orally on a schedule of QD×7 or QD×10 (5 day-on-2 day-off), although other schedules had also been evaluated and shown to be efficacious

[2] = molecular target: BRD4 (Homo sapiens, UniProt O60885); test: Time Resolved Fluorescence Resonance Energy Transfer (TR-FRET) binding assay, BRD4; conditions: one of the FRET assays described; read-out: FRET BRD4 IC50

Row | Compound | LCK ([1]; 1 mg/kg) | IC50 [2] | further results
1 | Cc1nnn(C)c1-c1cnc2c3ccc([C@](C)(O)C4CC4)c(F)c3n([C@H](c3ccccc3)C3CCOCC3)c2c1 [Example 432, (1R)-1-cyclopropyl-1-[3-(dimethyl-1H-1,2,3-triazol-5-yl)-6-fluoro-5-[(S)-oxan-4-yl(phenyl)methyl]-5H-pyrido[3,2-b]indol-7-yl]ethan-1-ol] | 0.4 | < 5 nM | LCK ([1]; 4 mg/kg): 1.4
2 | [2H]C([2H])([2H])c1nnn(C)c1-c1cnc2c3ccc(C(C)(C)O)cc3n(C(c3ccccc3)C3CCC(F)(F)CC3)c2c1 (centres unmarked) [Example 203, 2-{5-[(4,4-Difluorocyclohexyl)(phenyl)methyl]-3-[4-(^2H3)methyl-1-methyl-1H-1,2,3-triazol-5-yl]-5H-pyrido[3,2-b]indol-7-yl}propan-2-ol] | 0.7 | < 5 nM | % TGI ([1]; 1 mg/kg): 93%; % TGI ([1]; 4 mg/kg): 105%; LCK ([1]; 4 mg/kg): >1.4
3 | Cc1nnn(C)c1-c1cnc2c3ccc(C(C)(O)C4CC4)c(F)c3n([C@H](c3ccccc3F)C3CCOCC3)c2c1 (single isomer, unassigned) [Example 436] | 0.6 | < 5 nM | LCK ([1]; 4 mg/kg): 0.9
4 | [2H]C([2H])([2H])c1nnn(C)c1-c1cnc2c3ccc([C@@](C)(O)C4CC4)c(F)c3n([C@H](c3ccccc3)C3CCOCC3)c2c1 [Example 433, (1S)-1-cyclopropyl-1-{6-fluoro-3-[4-(^2H3)methyl-1-methyl-1H-1,2,3-triazol-5-yl]-5-[(S)-oxan-4-yl(phenyl)methyl]-5H-pyrido[3,2-b]indol-7-yl}ethan-1-ol] | 0.5 | – | % TGI ([1]; 1 mg/kg): 54%
5 | [2H]C([2H])([2H])c1nnn(C)c1-c1cnc2c3ccc([C@](C)(O)C4CC4)c(F)c3n([C@H](c3ccccc3)C3CCOCC3)c2c1 [Example 434, (1R)-1-cyclopropyl-1-{6-fluoro-3-[4-(^2H3)methyl-1-methyl-1H-1,2,3-triazol-5-yl]-5-[(S)-oxan-4-yl(phenyl)methyl]-5H-pyrido[3,2-b]indol-7-yl}ethan-1-ol] | 0.5 | – | % TGI ([1]; 1 mg/kg): 82%
6 | [2H]C([2H])([2H])c1nnn(C)c1-c1cnc2c3ccc(C(C)(C)O)c(F)c3n([C@H](c3ccccc3)C3CCOCC3)c2c1 [Example 278, 2-{6-Fluoro-3-[4-(^2H3)methyl-1-methyl-1H-1,2,3-triazol-5-yl]-5-[(S)-oxan-4-yl(phenyl)methyl]-5H-pyrido[3,2-b]indol-7-yl}propan-2-ol] | 1 | < 5 nM | LCK ([1]; 4 mg/kg): >1.4
7 | [2H]C([2H])([2H])c1nnn(C)c1-c1cnc2c3ccc(S(C)(=O)=O)cc3n([C@H](c3ccccc3)C3CCOCC3)c2c1 [Example 263, 5-{7-Methanesulfonyl-5-[(S)-oxan-4-yl(phenyl)methyl]-5H-pyrido[3,2-b]indol-3-yl}-4-(^2H3)methyl-1-methyl-1H-1,2,3-triazole] | 0.2 | < 5 nM | LCK ([1]; 4 mg/kg): 0.3
8 | [2H]C([2H])([2H])c1nnn(C)c1-c1cnc2c3cc(F)c(C(C)(C)O)cc3n([C@H](c3ccccc3)C3CCOCC3)c2c1 [Example 279, 2-{8-Fluoro-3-[4-(^2H3)methyl-1-methyl-1H-1,2,3-triazol-5-yl]-5-[(S)-oxan-4-yl(phenyl)methyl]-5H-pyrido[3,2-b]indol-7-yl}propan-2-ol] | 0.6 | < 5 nM | LCK ([1]; 4 mg/kg): >1.4
9 | Cc1nnn(C)c1-c1cnc2c3c(F)cc(S(C)(=O)=O)cc3n([C@H](c3ccccc3)C3CCOCC3)c2c1 [Example 194, 5-{9-Fluoro-7-methanesulfonyl-5-[(S)-oxan-4-yl(phenyl)methyl]-5H-pyrido[3,2-b]indol-3-yl}-1,4-dimethyl-1H-1,2,3-triazole] | – | < 5 nM | –
10 | Cc1nnn(C)c1-c1cnc2c3c(S(C)(=O)=O)cccc3n(C(CCC(F)(F)F)c3ccccn3)c2c1 (single isomer, unassigned) [Example 258, 2-{1-[3-(Dimethyl-1H-1,2,3-triazol-5-yl)-9-methanesulfonyl-5H-pyrido[3,2-b]indol-5-yl]-4,4,4-trifluorobutyl}pyridine] | – | < 5 nM | –
11 | Cc1noc(C)c1-c1cnc2c3ccc(C(C)(C)O)cc3n(C(c3c(F)cc(F)cc3F)C3CCOCC3)c2c1 (single isomer, unassigned) [Example 128, 2-[3-(Dimethyl-1,2-oxazol-4-yl)-5-[oxan-4-yl(2,4,6-trifluorophenyl)methyl]-5H-pyrido[3,2-b]indol-7-yl]propan-2-ol] | – | < 25 nM | –
12 | Cc1nnn(C)c1-c1cnc2c3c(S(C)(=O)=O)cccc3n(C(c3ccccc3F)C3CCOCC3)c2c1 (single isomer, unassigned) [Example 116, 5-{5-[(2-Fluorophenyl)(oxan-4-yl)methyl]-9-methanesulfonyl-5H-pyrido[3,2-b]indol-3-yl}-1,4-dimethyl-1H-1,2,3-triazole] | – | < 25 nM | –
13 | [2H]C([2H])([2H])Oc1ccc(S(=O)(=O)C([2H])([2H])[2H])c2c1c1ncc(-c3c(C)nnn3C)cc1n2[C@H](c1ccccc1)C1CCOCC1 [Example 184, 5-[6-(^2H3)Methanesulfonyl-9-(^2H3)methoxy-5-[(S)-oxan-4-yl(phenyl)methyl]-5H-pyrido[3,2-b]indol-3-yl]-1,4-dimethyl-1H-1,2,3-triazole] | – | < 5 nM | –
14 | Cc1nnn(C)c1-c1cnc2c3c(F)ccc(CO)c3n([C@H](c3ccccc3)C3CCOCC3)c2c1 [Example 152, [3-(Dimethyl-1H-1,2,3-triazol-5-yl)-9-fluoro-5-[(S)-oxan-4-yl(phenyl)methyl]-5H-pyrido[3,2-b]indol-6-yl]methanol] | – | < 5 nM | –
15 | [2H]C([2H])([2H])c1nnn(C)c1-c1cnc2c3ccc(C(C)(C)O)c(Cl)c3n([C@H](c3ccccc3)C3CCOCC3)c2c1 [Example 393, 2-{6-Chloro-3-[4-(^2H3)methyl-1-methyl-1H-1,2,3-triazol-5-yl]-5-[(S)-oxan-4-yl(phenyl)methyl]-5H-pyrido[3,2-b]indol-7-yl}propan-2-ol] | – | < 5 nM | –
16 | Cc1nnn(C)c1-c1cnc2c3ccc(C(=O)N4CC(F)C4)cc3n([C@H](c3ccccc3)C3CCOCC3)c2c1 [Example 413, 5-[7-(3-Fluoroazetidine-1-carbonyl)-5-[(S)-oxan-4-yl(phenyl)methyl]-5H-pyrido[3,2-b]indol-3-yl]-1,4-dimethyl-1H-1,2,3-triazole] | – | < 5 nM | –
17 | Cc1noc(C)c1-c1cnc2c3ccc(C(C)(C)O)cc3n(C(c3cccc(F)c3)C3CCOCC3)c2c1 (single isomer, unassigned) [Example 148, 2-[3-(Dimethyl-1,2-oxazol-4-yl)-5-[(3-fluorophenyl)(oxan-4-yl)methyl]-5H-pyrido[3,2-b]indol-7-yl]propan-2-ol] | – | < 25 nM | –
18 | Cc1nnn(C)c1-c1cnc2c3ccc(C(C)(C)O)cc3n(C(c3cccc(F)c3F)C3CCOCC3)c2c1 (single isomer, unassigned) [Example 95, 2-{5-[(2,3-Difluorophenyl)(oxan-4-yl)methyl]-3-(dimethyl-1H-1,2,3-triazol-5-yl)-5H-pyrido[3,2-b]indol-7-yl}propan-2-ol] | – | < 5 nM | –
19 | [2H]C([2H])([2H])c1nnn(C)c1-c1cnc2c3c(OCC(F)F)ccc(S(C)(=O)=O)c3n(C(c3ncccc3F)C3CCOCC3)c2c1 (centres unmarked) [Example 245, 2-{[9-(2,2-Difluoroethoxy)-6-methanesulfonyl-3-[4-(^2H3)methyl-1-methyl-1H-1,2,3-triazol-5-yl]-5H-pyrido[3,2-b]indol-5-yl](oxan-4-yl)methyl}-3-fluoropyridine] | – | < 5 nM | –
20 | [2H]C([2H])([2H])c1nnn(C)c1-c1cnc2c3c(F)ccc(S(C)(=O)=O)c3n(C(c3ncccc3F)C3CCOCC3)c2c1 (centres unmarked) [Example 236, 3-Fluoro-2-({9-fluoro-6-methanesulfonyl-3-[4-(^2H3)methyl-1-methyl-1H-1,2,3-triazol-5-yl]-5H-pyrido[3,2-b]indol-5-yl}(oxan-4-yl)methyl)pyridine] | – | < 1500 nM | –
21 | Cc1noc(C)c1-c1cnc2c3ccc(C(C)(C)O)cc3n([C@@H](c3ccccn3)C3CCOCC3)c2c1 [Example 22] | – | < 5 nM | –
22 | Cc1ccnc([C@H](C2CCOCC2)n2c3cc(CS(C)(=O)=O)ccc3c3ncc(-c4c(C)nnn4C)cc32)c1 [Example 337] | – | < 5 nM | –
